# From patent US4230702A, “Readily enterally absorbable pharmaceutical compositions of per se poorly enterally absorbable pharmacologically active agents” (priority 1978, dated 1980)
# Where two headings read alike, the source gives them in different places.
# Experiments:
# [1] = Blood (serum) level of benzarone, comparison of areas beneath the blood level curves; type: in vivo, rat; settings: 1000 mg/kg oral, rats, solution in Rilanit GMO compared with aqueous suspension, up to 15 hours
# Experimental: For determining the blood level values, a dose of 1000 mg/kg of benzarone in form of a solution in Rilanit GMO^4) and in form of a suspension in water are administered to rats by means of an oral feeding tube.
# Subsequently every two hours including the 10th hour, 8 animals of each group, and after 15 hours, 4 more animals of each group are sacrificed and their blood is recovered by means of a cordial cut. The amount of benzarone in the serum is determined spectrophotometrically. The measured blood level values are plotted on a graph and the areas beneath the resulting blood level curves are compared.
# [2] = Renal excretion of benzarone, comparison of areas beneath the curves; type: in vivo, rat; settings: 1000 mg/kg oral, rats, solution in Rilanit GMO compared with aqueous suspension, 15 hours
# Experimental: Furthermore doses of 1000 mg/kg of benzarone in the form of a solution in Rilanit GMO^4) and in form of a suspension in water are orally administered to rats by means of an oral feeding tube. The urine of the animals is collected every 2 hours over a period of 15 hours and the amount of the excreted benzarone therein is determined spectrophotometrically. The measured values are plotted on a graph and the areas beneath the resulting curves are compared.
# [3] = Oral toxicity (LD50) of solutions in partial glycerides versus suspension in aqueous tylose; settings: guinea pig, in vivo, female guinea pigs
# Experimental: For testing the toxicity, solutions of g-strophanthin, proscillaridin A or medrogestone in various mixtures of mono-and diglycerides of long chain fatty acids and comparative formulations of the same pharmacologically active agents suspended in a tylose solution in water are administered orally to female guinea pigs of 250 to 300 g body weight by means of an oral feeding tube.
# [4] = Renal excretion of carbon-14 labelled progesterone, cumulative urinary 14C; type: in vivo, guinea pig; settings: 20 mg/kg oral; for Cumulative Renal Excretion of Progesterone: guinea pigs
# Experimental: For determining the renal excretion, a dose of 20 mg/kg of carbon-14 labelled progesterone in the form of solutions in various mixtures of partial glycerides of long chain fatty acids and a comparative formulation wherein the progesterone is suspended in an aqueous tylose solution are administered orally to female guinea pigs having an average body weight of about 300 g. The urine of the animals is collected every 24 hours and the ^14 C-content in equal amounts of the urine is determined. The cumulated amount of excreted material is shown in Table II below in % of the administered dose. The percentage of excreted material is about 83% for the solution of progesterone in Peceol.
# [5] = solution in Peceol (mono, di, and triglycerides of oleic acid), read-out: LD50 in Peceol
# [6] = solution in Witafrol 7470 (mono- and diglycerides of oleic acid), read-out: LD50 in Witafrol 7470
# [7] = suspended in tylose (methylcellulose) solution in water, read-out: LD50 in Tylose
smiles,measurement,setting,value
"CCc1oc2ccccc2c1C(=O)c1ccc(O)cc1 [benzarone, 2-ethyl-3-(4-hydroxybenzoyl)benzofuran]",increase of the concentration of benzarone in the serum (comparison of areas beneath blood level curves),[1],257%
same,increase of the renal excretion of benzarone (comparison of areas beneath the curves),[2],437%
CC1OC(OC2CC(O)C3(CO)C4C(O)CC5(C)C(C6=CC(=O)OC6)CCC5(O)C4CCC3(O)C2)C(O)C(O)C1O (stereo not shown) [g-strophanthin],LD50,[3]; [5],8.38 mg/kg
same,LD50,[3]; [6],8.28 mg/kg
same,LD50,[3]; [7],34.8 mg/kg
CC(=O)[C@@]1(C)CC[C@H]2[C@@H]3C=C(C)C4=CC(=O)CC[C@]4(C)[C@H]3CC[C@@]21C [medrogestone],LD50,[3]; [5],850 mg/kg
same,LD50,"[3]; solution in Rilanit GMO (mono- and diglycerides of oleic acid), read-out: LD50 in Rilanit GMO",862 mg/kg
same,LD50,[3]; [7],1470 mg/kg
CC(=O)[C@H]1CC[C@H]2[C@@H]3CCC4=CC(=O)CC[C@]4(C)[C@H]3CC[C@]12C [progesterone],percentage of excreted material,"[4]; female guinea pigs, 14C-progesterone, solution in Peceol, % of the administered dose",about 83%
same,amount of excreted material relative to the suspension in the tylose solution,"[4]; female guinea pigs, solution in Peceol versus tylose suspension",about twice as high
same,Cumulative Renal Excretion of Progesterone,"[4]; Peceol X1, 1. day",46.0 % of the Administered Dose
same,Cumulative Renal Excretion of Progesterone,"[4]; Peceol X1, 2. day",64.6 % of the Administered Dose
same,Cumulative Renal Excretion of Progesterone,"[4]; Peceol X1, 3. day",71.6 % of the Administered Dose
same,Cumulative Renal Excretion of Progesterone,"[4]; Peceol X1, 4. day",76.1 % of the Administered Dose
same,Cumulative Renal Excretion of Progesterone,"[4]; Peceol X1, 5. day",79.1 % of the Administered Dose
same,Cumulative Renal Excretion of Progesterone,"[4]; Peceol X1, 6. day",81.1 % of the Administered Dose
same,Cumulative Renal Excretion of Progesterone,"[4]; Peceol X1, 7. day",82.9 % of the Administered Dose
same,Cumulative Renal Excretion of Progesterone,"[4]; Softigen 701, 1. day",51.6 % of the Administered Dose
same,Cumulative Renal Excretion of Progesterone,"[4]; Softigen 701, 2. day",63.2 % of the Administered Dose
same,Cumulative Renal Excretion of Progesterone,"[4]; Softigen 701, 3. day",66.2 % of the Administered Dose
same,Cumulative Renal Excretion of Progesterone,"[4]; Softigen 701, 4. day",66.9 % of the Administered Dose
same,Cumulative Renal Excretion of Progesterone,"[4]; Softigen 701, 5. day",67.4 % of the Administered Dose
same,Cumulative Renal Excretion of Progesterone,"[4]; Softigen 701, 6. day",67.6 % of the Administered Dose
same,Cumulative Renal Excretion of Progesterone,"[4]; Softigen 701, 7. day",67.7 % of the Administered Dose
same,Cumulative Renal Excretion of Progesterone,"[4]; Tegin 0, 1. day",37.9 % of the Administered Dose
same,Cumulative Renal Excretion of Progesterone,"[4]; Tegin 0, 2. day",48.7 % of the Administered Dose
same,Cumulative Renal Excretion of Progesterone,"[4]; Tegin 0, 3. day",51.6 % of the Administered Dose
same,Cumulative Renal Excretion of Progesterone,"[4]; Tegin 0, 4. day",52.3 % of the Administered Dose
same,Cumulative Renal Excretion of Progesterone,"[4]; Tegin 0, 5. day",52.6 % of the Administered Dose
same,Cumulative Renal Excretion of Progesterone,"[4]; Tegin 0, 6. day",52.8 % of the Administered Dose
same,Cumulative Renal Excretion of Progesterone,"[4]; Tegin 0, 7. day",52.9 % of the Administered Dose
same,Cumulative Renal Excretion of Progesterone,"[4]; Tegomuls X10, 1. day",42.5 % of the Administered Dose
same,Cumulative Renal Excretion of Progesterone,"[4]; Tegomuls X10, 2. day",58.3 % of the Administered Dose
same,Cumulative Renal Excretion of Progesterone,"[4]; Tegomuls X10, 3. day",69.2 % of the Administered Dose
same,Cumulative Renal Excretion of Progesterone,"[4]; Tegomuls X10, 4. day",75.2 % of the Administered Dose
same,Cumulative Renal Excretion of Progesterone,"[4]; Tegomuls X10, 5. day",78.8 % of the Administered Dose
same,Cumulative Renal Excretion of Progesterone,"[4]; Tegomuls X10, 6. day",80.6 % of the Administered Dose
same,Cumulative Renal Excretion of Progesterone,"[4]; Tegomuls X10, 7. day",81.9 % of the Administered Dose
same,Cumulative Renal Excretion of Progesterone,"[4]; Tegomuls X17, 1. day",43.7 % of the Administered Dose
same,Cumulative Renal Excretion of Progesterone,"[4]; Tegomuls X17, 2. day",55.0 % of the Administered Dose
same,Cumulative Renal Excretion of Progesterone,"[4]; Tegomuls X17, 3. day",62.0 % of the Administered Dose
same,Cumulative Renal Excretion of Progesterone,"[4]; Tegomuls X17, 4. day",66.6 % of the Administered Dose
same,Cumulative Renal Excretion of Progesterone,"[4]; Tegomuls X17, 5. day",70.0 % of the Administered Dose
same,Cumulative Renal Excretion of Progesterone,"[4]; Tegomuls X17, 6. day",71.9 % of the Administered Dose
same,Cumulative Renal Excretion of Progesterone,"[4]; Tegomuls X17, 7. day",73.9 % of the Administered Dose
same,Cumulative Renal Excretion of Progesterone,"[4]; Tylose, 1. day",29.7 % of the Administered Dose
same,Cumulative Renal Excretion of Progesterone,"[4]; Tylose, 2. day",39.1 % of the Administered Dose
same,Cumulative Renal Excretion of Progesterone,"[4]; Tylose, 3. day",43.0 % of the Administered Dose
same,Cumulative Renal Excretion of Progesterone,"[4]; Tylose, 4. day",44.0 % of the Administered Dose
same,Cumulative Renal Excretion of Progesterone,"[4]; Tylose, 5. day",44.5 % of the Administered Dose
same,Cumulative Renal Excretion of Progesterone,"[4]; Tylose, 6. day",46.2 % of the Administered Dose
same,Cumulative Renal Excretion of Progesterone,"[4]; Tylose, 7. day",46.4 % of the Administered Dose
C[C@@H]1O[C@@H](O[C@@H]2C=C3CC[C@@H]4[C@H](CC[C@]5(C)[C@@H](c6ccc(=O)oc6)CC[C@]45O)[C@@]3(C)CC2)[C@H](O)[C@H](O)[C@H]1O [proscillaridin A],LD50,[3]; [5],7.77 mg/kg
same,LD50,[3]; [6],6.81 mg/kg
same,LD50,[3]; [7],12.3 mg/kg
